Test results: patent publication US20240067632A1, “WEE1 Degrading Compounds and Uses Thereof” (Bristol-Myers Squibb Company, priority 2022, published 2024)

Key:
WEE1 = molecular target: T1, WEE1 (Homo sapiens, UniProt P30291+Q96SW2); test: WEE1-ePL degradation assay (LentiX-WEE1-ePL-GSPT1-ND cells, InCELL Hunter luminescence, 4 h); format: cell-based; details: 293T-LentiX WEE1-ePL cells; for 293T-LentiX WEE1-ePL Degradation 4 hr (Ymin): lower limit of the fit (0 = luciferase inhibitor, Ymax = DMSO control); for DC50: read-out: 293T-LentiX WEE1-ePL Degradation 4 hr (EC50)
T1 construct: C-terminal ePL-tagged (DiscoverX, Fremont, CA) full-length WEE1 expression construct; expressed in transfected cells; host or cells: LentiX-HEK293T (Invitrogen), lentiviral transduction; co-expressing GSPT1-GN (G576N, lacking the first 158 amino acids)
Procedure, shortened: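 Degradation EC50 was fitted by a four-parameter logistic model, with the upper limit taken from DMSO wells. Luminescence was read with InCELL Hunter reagent after 30 min at room temperature, following a 4 h, 37° C exposure of 2500 cells/well. Cells were LentiX-HEK293T carrying ePL-tagged full-length WEE1, dosed in 10 points (3-fold) from 1 or 10 uM.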

MKN45 cells = test: MKN45 cell proliferation assay (Cell-Titer-Glo, 120 h); format: cell-based; details: for EC50: Homo sapiens, MKN-45, 120 h, Cell-Titer-Glo, growth inhibition, read-out: MKN45 Cell Prolif. 120 hr (EC50); for MKN45 Cell Prolif. 120 hr (Ymin-Obs): minimal percent of DMSO control observed in the concentrations tested
Procedure, shortened: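 Cells seeded at 400/well onto pre-printed 10-point half-log dilutions (top 1 or 10 uM, 0.1% DMSO final), in triplicate, and grown 120 h at 37 C. Viability by Cell-Titer-Glo luminescence, blank-subtracted and normalised to DMSO; EC50 from four-parameter logistic fit, with observed minimal % of control recorded as Ymin-obs.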

SMILES	293T-LentiX WEE1-ePL Degradation 4 hr (Ymin) (WEE1)	DC50 (WEE1)	EC50 (MKN45 cells)	MKN45 Cell Prolif. 120 hr (Ymin-Obs) (MKN45 cells)
O=C1CC[C@H](N2Cc3cc(O[C@H]4CCN(Cc5ccc6nc(N7CCOCC7)ncc6c5)C4)ccc3C2=O)C(=O)N1 [(3S)-3-(5-{[(3S)-1-{[2-(morpholin-4-yl)quinazolin-6-yl]methyl}pyrrolidin-3-yl]oxy}-1-oxo-2,3-dihydro-1H-isoindol-2-yl)piperidine-2,6-dione]	34	7.36 nM	11.7 nM	11.86
O=C1CCC(N2Cc3cc(O[C@H]4CCN(Cc5cccc6ncccc56)C4)ccc3C2=O)C(=O)N1 (stereo partly drawn) [3-(1-oxo-5-{[(3S)-1-[(quinolin-5-yl)methyl]pyrrolidin-3-yl]oxy}-2,3-dihydro-1H-isoindol-2-yl)piperidine-2,6-dione]	32.69	14.6 nM	104 nM	19
COc1ncc2cc(CN3CC[C@H](Oc4ccc5c(c4)CN(C4CCC(=O)NC4=O)C5=O)C3)ccc2n1 (stereo partly drawn) [3-(5-{[(3S)-1-[(2-methoxyquinazolin-6-yl)methyl]pyrrolidin-3-yl]oxy}-1-oxo-2,3-dihydro-1H-isoindol-2-yl)piperidine-2,6-dione]	37	8.05 nM	22.3 nM	8.47
O=C1CC[C@H](N2Cc3cc(O[C@H]4CCN(Cc5cc(F)c6nc(C7CCOCC7)ccc6c5)C4)ccc3C2=O)C(=O)N1 [(3S)-3-(5-{[(3S)-1-{[8-fluoro-2-(oxan-4-yl)quinolin-6-yl]methyl}pyrrolidin-3-yl]oxy}-1-oxo-2,3-dihydro-1H-isoindol-2-yl)piperidine-2,6-dione]	29.02	1.45 nM	2.29 nM	8.43
Cc1ccc2cc(CN3C[C@@H](C)[C@H](Oc4ccc5c(c4)CN(C4CCC(=O)NC4=O)C5=O)C3)ccc2n1 (stereo partly drawn) [3-(5-{[(3S,4R)-4-methyl-1-[(2-methylquinolin-6-yl)methyl]pyrrolidin-3-yl]oxy}-1-oxo-2,3-dihydro-1H-isoindol-2-yl)piperidine-2,6-dione]	33	3.1 nM	17.5 nM	12.51
Cc1ncc2cc(CN3CC[C@H](Oc4ccc5c(c4)CN(C4CCC(=O)NC4=O)C5=O)C3)ccc2n1 (stereo partly drawn) [3-(5-{[(3S)-1-[(2-methylquinazolin-6-yl)methyl]pyrrolidin-3-yl]oxy}-1-oxo-2,3-dihydro-1H-isoindol-2-yl)piperidine-2,6-dione]	34.5	29.6 nM	27.1 nM	7.995
O=C1CC[C@H](N2Cc3cc(O[C@H]4CCN(Cc5ccc6nc(N7CCOCC7)ccc6c5)C4)ccc3C2=O)C(=O)N1 [(3S)-3-(5-{[(3S)-1-{[2-(morpholin-4-yl)quinolin-6-yl]methyl}pyrrolidin-3-yl]oxy}-1-oxo-2,3-dihydro-1H-isoindol-2-yl)piperidine-2,6-dione]	34.59	1.83 nM	9.71 nM	14.56
CO[C@@H]1CCN(c2ccc3cc(CN4CC[C@H](Oc5ccc6c(c5)CN(C5CCC(=O)NC5=O)C6=O)C4)ccc3n2)C1 (stereo partly drawn) [3-(5-{[(3S)-1-({2-[(3R)-3-methoxypyrrolidin-1-yl]quinolin-6-yl}methyl)pyrrolidin-3-yl]oxy}-1-oxo-2,3-dihydro-1H-isoindol-2-yl)piperidine-2,6-dione]	37	2.46 nM	3.67 nM	8.99
O=C1CCC(N2Cc3cc(O[C@H]4CCN(Cc5cnc6ccccc6n5)C4)ccc3C2=O)C(=O)N1 (stereo partly drawn) [3-(1-oxo-5-{[(3S)-1-[(quinoxalin-2-yl)methyl]pyrrolidin-3-yl]oxy}-2,3-dihydro-1H-isoindol-2-yl)piperidine-2,6-dione]	43.82	46.9 nM	> 10000 nM	64.16
NC(=O)c1ccc2cc(CN3CC[C@H](Oc4ccc5c(c4)CN(C4CCC(=O)NC4=O)C5=O)C3)ccc2n1 (stereo partly drawn) [6-{[(3S)-3-{[2-(2,6-dioxopiperidin-3-yl)-1-oxo-2,3-dihydro-1H-isoindol-5-yl]oxy}pyrrolidin-1-yl]methyl}quinoline-2-carboxamide]	26.545	3.53 nM	17.1 nM	10.71
O=C1CCC(N2Cc3cc(O[C@H]4CCN(Cc5ccc6ncc(F)cc6c5)C4)ccc3C2=O)C(=O)N1 (stereo partly drawn) [3-(5-{[(3S)-1-[(3-fluoroquinolin-6-yl)methyl]pyrrolidin-3-yl]oxy}-1-oxo-2,3-dihydro-1H-isoindol-2-yl)piperidine-2,6-dione]	34.66	8.72 nM	75.7 nM	19.555
O=C1CCC(N2Cc3cc(O[C@H]4CCN(Cc5nccc6c5CCCO6)C4)ccc3C2=O)C(=O)N1 (stereo partly drawn) [3-(1-oxo-5-{[(3S)-1-({2H,3H,4H-pyrano[3,2-c]pyridin-5-yl}methyl)pyrrolidin-3-yl]oxy}-2,3-dihydro-1H-isoindol-2-yl)piperidine-2,6-dione]	36	16.1 nM	122 nM	16.99
O=C1CCC(N2Cc3cc(O[C@H]4CCN(Cc5ccc(-c6ccccc6)cn5)C4)ccc3C2=O)C(=O)N1 (stereo partly drawn) [3-(1-oxo-5-{[(3S)-1-[(5-phenylpyridin-2-yl)methyl]pyrrolidin-3-yl]oxy}-2,3-dihydro-1H-isoindol-2-yl)piperidine-2,6-dione]	46	7.59 nM	131 nM	31.28
CO[C@@H]1CC[C@@H](c2ccc3cc(CN4CC[C@H](Oc5ccc6c(c5)CN(C5CCC(=O)NC5=O)C6=O)C4)ccc3n2)C1 (stereo partly drawn) [3-(5-{[(3S)-1-({2-[(1R,3R)-3-methoxycyclopentyl]quinolin-6-yl}methyl)pyrrolidin-3-yl]oxy}-1-oxo-2,3-dihydro-1H-isoindol-2-yl)piperidine-2,6-dione]	30	4.74 nM	1.95 nM	7.45
O=C1CCC(N2Cc3cc(O[C@H]4CCN(Cc5ccc6nc(Oc7ccccn7)ccc6c5)C4)ccc3C2=O)C(=O)N1 (stereo partly drawn) [3-(1-oxo-5-{[(3S)-1-{[2-(pyridin-2-yloxy)quinolin-6-yl]methyl}pyrrolidin-3-yl]oxy}-2,3-dihydro-1H-isoindol-2-yl)piperidine-2,6-dione]	35	6.39 nM	2.88 nM	7.62
N#Cc1ccc2cc(CN3C[C@@H](F)[C@H](Oc4ccc5c(c4)CN(C4CCC(=O)NC4=O)C5=O)C3)ccc2n1 (stereo partly drawn) [6-{[(3R,4R)-3-{[2-(2,6-dioxopiperidin-3-yl)-1-oxo-2,3-dihydro-1H-isoindol-5-yl]oxy}-4-fluoropyrrolidin-1-yl]methyl}quinoline-2-carbonitrile]	32.7	22.3 nM	91.6 nM	37.36
